The results in this text go back to patent US7566737B2 (Genfit, priority 2002, dated 2009).

One assay has as its target T1, PPARδ (Mus musculus, UniProt P35396).
T1 construct: from tissue; host or cells: heart and skeletal muscle (quadriceps) of PPARα knock-out mice
T1 sequence (P35396 1-440): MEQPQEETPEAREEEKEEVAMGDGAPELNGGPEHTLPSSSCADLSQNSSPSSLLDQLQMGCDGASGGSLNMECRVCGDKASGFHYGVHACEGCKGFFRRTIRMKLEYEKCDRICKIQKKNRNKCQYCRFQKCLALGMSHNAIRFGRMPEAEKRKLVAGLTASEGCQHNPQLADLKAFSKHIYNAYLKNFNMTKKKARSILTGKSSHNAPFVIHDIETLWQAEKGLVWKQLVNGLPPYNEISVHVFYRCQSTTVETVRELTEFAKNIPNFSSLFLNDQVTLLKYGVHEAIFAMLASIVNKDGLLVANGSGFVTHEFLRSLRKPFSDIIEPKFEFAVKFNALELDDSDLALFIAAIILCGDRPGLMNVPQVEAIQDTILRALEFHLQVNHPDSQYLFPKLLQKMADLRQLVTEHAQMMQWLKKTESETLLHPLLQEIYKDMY
Put plainly: In vivo evaluation of PPARδ properties (target gene expression, RT-PCR). Conditions: PPARα knock-out mouse; 150 mg/kg/day for 3 days. As to the method: The PPARα knock-out mouse model was used to characterize in vivo PPARδ activation. Animals were treated for 3 days at the dose of 150 mg/kg/day. Total RNA was isolated from heart and skeletal muscle (quadriceps). Messenger RNAs were quantified by quantitative RT-PCR and expression levels were normalized using 18S gene as reference.
The […] knock-out mouse model was used to characterize in vivo PPARδ activation. Animals were treated for 3 days at the dose of 150 mg/kg/day. Total RNA was isolated from heart and skeletal muscle (quadriceps). Messenger RNAs were quantified by quantitative RT-PCR: total RNA was extracted from fragments of skeletal muscle or heart, using the RNeasy® Fibrous Tissue kit (Qiagen), according to the manufacturer's instructions. Reverse transcription was performed on 1 μg of total RNA (quantified using the Ribogreen RNA quantification kit (Molecular Probes)) by action of 1 μl of MMLV-RT enzyme (Sigma) during 1 hour at 37° C. in a total volume of 20 μl. The reaction conditions were 1× buffer (Sigma), 1.5 mM DTT, 0.18 mM dNTPs (Promega), 200 ng pdN6 (Amersham), 30 U RNase inhibitor (Sigma). Quantitative PCR was then carried out using the MyiQ Single-Color Real-Time PCR Detection System (Biorad). Briefly PCR reactions were performed in 96 well plates on 5 μl of diluted reverse transcription mix using the iQ SYBR Green Supermix kit. The reaction conditions were: 25 μl of volume reaction, 3 mM of MgCl2, and 0.5 μl of each reverse and forward primer solutions (10 pMol), Tm of 55° C. The primers pairs are specific for each target genes. […]
The quantity of fluorescence emitted is directly proportional to the quantity of complementary DNA present at the start of the reaction and amplified during the PCR. The relative levels of expression were determined using the standard curve for each transcript. […] The induction factor, i.e. the ratio between the relative signal induced by the compound according to the invention and the average of the values relating to the control group, was then calculated for each sample. […]

For assay [1], the system named is C57BLKS-m Lepr^db transgenic mice. Briefly: Antidiabetic effect on insulin and glucose. It counts as in vivo, mouse. Conditions: 0.1 to 100 mg/Kg/day for 28 days. As to the method:
Genetically modified C57BLKS-m Lepr^db mice were used to asses antidiabetic effect of the inventive compounds. Mice were randomized according to their plasma lipid, glucose and insulin contents. Treatments were administered once daily by gavage (10 ml/kg) for the duration of the treatment. For oral administrations, the drugs were suspended in CMC 1% or CMC 1%+Tween 80 0.1%. The plasma glucose was measured using a kit reagent from Biomerieux (France). The plasma insulin was measured using a solid phase two-site enzyme immunoassay from Crystal Chem Inc. (USA). The results are exemplified in FIGS. 5-1 to 5-4 which illustrate the activity of inventive compounds 29 and 62 on glucose and insulin.

Consider `Cc1cc(/C=C/C(=O)c2ccc(Br)cc2)cc(C)c1OC(C)(C)C(=O)O` [Compound 41, 1-[4-bromophenyl]-3-[3,5-dimethyl-4-carboxydimethylmethyloxyphenyl]prop-2-en-1-one], for which, on PPARδ, the “PDK4 expression in the heart” value was “Induction”, the “UCP2 expression in the skeletal muscle” value is “Induction” and the “UCP3 expression in the heart” value is “Induction”.
For `CSc1ccc(C(=O)/C=C/c2cc(C)c(OC(C)(C)C(=O)O)c(C)c2)cc1` [Compound 29, 1-[4-methylthiophenyl]-3-[3,5-dimethyl-4-carboxydimethylmethyloxyphenyl]prop-2-en-1-one], in assay [1], the plasma glucose level result is on record as “decrease” and the plasma insulin level result is recorded as “decrease”.
